# Laboratory results published in US20220378756A1, “ACTIVATING PYRUVATE KINASE R” (FORMA Therapeutics, Inc., priority 2019, published 2022).
# Several values for one entry are separate records, joined by “and”; a condition that tells them apart may be missing. Equal values may be shown once.
# Experiments:
# [1] = Phase 1 SAD/MAD, healthy volunteers: pharmacokinetics; assay type: in vivo, human
# From the text: (§1) This is a first-in-human (FIH), Phase 1 study of Compound 1 that will characterize the safety, PK, and PD of Compound 1 after a single dose and after repeated dosing first in healthy adult volunteers and then in adolescents or adults with sickle cell disease. Initially, a dose range of Compound 1 in single ascending dose (SAD) escalation cohorts will be explored in healthy subjects. Enrollment of healthy subjects into 2-week multiple ascending dose (MAD) escalation cohorts will be initiated once the safety and PK from at least two SAD cohorts is available to inform the doses for the 2-week MAD portion of the study. The MAD cohorts will then run in parallel to the single dose cohorts. A single dose cohort is planned to understand food effects (FE) on the PK of Compound 1. […] Multiple dose studies in SCD subjects will then be initiated upon completion of MAD studies in healthy volunteers. Compound 1 will be administered in 25 mg and 100 mg tablets delivered orally.
# In this study, SAD/MAD cohorts are randomized (3 to 1) to receive Compound 1 or placebo (P). Compound 1 was evaluated first in 4 healthy SAD cohorts and 4 healthy MAD (14-day dosing period) cohorts. Based on the safety, and PK/PD profile from HS, Compound 1 is then evaluated in 1 SCD SAD cohort and 2 SCD MAD cohorts. Specifically, based on the safety and pharmacokinetic/pharmacodynamics (PK/PD) profile in healthy volunteer studies, Compound 1 is evaluated in patients (pts) with SCD, first in a single dose (SD or SAD) cohort and then in multiple-dose (MD or MAD) cohorts (14-day and 12-week). Safety assessments include AEs, vital signs, ECGs and laboratory parameters. PK/PD blood sampling was performed on Day 1 (SAD/MAD) and Day 14 (MAD) and up to 72 h after the last dose and at the end-of-study visit. […]
# Four healthy SAD cohorts were evaluated at doses of 200, 400, 700, and 1000 mg, and four healthy MAD cohorts received 200 to 600 mg total daily doses for 14 days at QD or BID dosing (100 mg BID, 200 mg BID, 300 mg BID, and 400 mg QD). […]
# [2] = tested on: H295R adreno-cortical carcinoma cell line; test: Steroid modulation screen in vitro; assay type: cell-based; settings: tested at 200 to 0.0002 μM; only at the top concentration
# Procedure: To assess potential effects on steroidogenesis, Compound 1 was screened for steroid modulation in vitro using the H295R adreno-cortical carcinoma cell line (at 200 to 0.0002 μM) and in an assay to monitor cell viability (MTT Kit). Compound 1 indicated steroid modulation potential (% over vehicle) only at 200 µM, the top concentration tested, with 100% cellular viability at concentrations ≤20 μM (90% viability at 200 μM).
# [3] = Phase 1 SAD/MAD, healthy volunteers: safety; assay type: in vivo, human
# From the text: as §1
# In this study, SAD/MAD cohorts are randomized (3 to 1) to receive Compound 1 or placebo (P). Compound 1 was evaluated first in 4 healthy SAD cohorts and 4 healthy MAD (14-day dosing period) cohorts. Based on the safety, and PK/PD profile from HS, Compound 1 is then evaluated in 1 SCD SAD cohort and 2 SCD MAD cohorts. Specifically, based on the safety and pharmacokinetic/pharmacodynamics (PK/PD) profile in healthy volunteer studies, Compound 1 is evaluated in patients (pts) with SCD, first in a single dose (SD or SAD) cohort and then in multiple-dose (MD or MAD) cohorts (14-day and 12-week). Safety assessments include AEs, vital signs, ECGs and laboratory parameters. PK/PD blood sampling was performed on Day 1 (SAD/MAD) and Day 14 (MAD) and up to 72 h after the last dose and at the end-of-study visit. PD parameters included 2,3-DPG, ATP, and p50 in all cohorts with additional PD studies (including oxygen scan) performed only in the SCD cohorts. PD parameters included 2,3-DPG, ATP, p50, RBC deformability with controlled deoxygenation and reoxygenation (Lorrca® oxygen scan) and varying osmolality (Lorrca® osmoscan)). To maintain study blind, pt identifiers were removed when needed.
# Four healthy SAD cohorts were evaluated at doses of 200, 400, 700, and 1000 mg, and four healthy MAD cohorts received 200 to 600 mg total daily doses for 14 days at QD or BID dosing (100 mg BID, 200 mg BID, 300 mg BID, and 400 mg QD). In the food effect (FE) cohort, 10 healthy subjects received 200 mg of Compound 1 QD with and without food.
# [4] = tested on: ATP and 2,3-DPG levels in blood cells; test: 28-day daily dosing in non-human primates; assay type: in vivo
# Procedure: 2,3-DPG levels in blood cells from non-human primates receiving daily doses of Compound 1 at 100, 350 and 550 mg/kg for 28 days were measured. Dose dependent decreases in 2,3-DPG levels were observed, with up to a 40% decrease from pretreatment levels, as illustrated in FIG. 22.
# [5] = target: T1, PKR in mouse red blood cells (Mus musculus, UniProt P53657); test: PKR activation in mouse red blood cells; assay type: cell-based; settings: mouse RBCs
# T1 construct: endogenous in cells; host or cells: mouse RBCs isolated fresh from whole blood
# Procedure: The activation of wt-PKR by Compound 1 in mature human erythrocytes ex vivo was evaluated in purified RBCs purchased from Research Blood Components. Cells treated with Compound 1 for 3 hr in glucose-containing media were washed, lysed, and assayed using a Biovision Pyruvate Kinase Assay (K709-100). The assay was repeated multiple times to account for donor-to-donor variability and the relatively narrow dynamic range.
# Mouse RBCs were isolated fresh from whole blood using a Ficoll gradient and assayed with methods similar to those used in the human RBCs assays.
# T1 sequence (P53657 whole entry): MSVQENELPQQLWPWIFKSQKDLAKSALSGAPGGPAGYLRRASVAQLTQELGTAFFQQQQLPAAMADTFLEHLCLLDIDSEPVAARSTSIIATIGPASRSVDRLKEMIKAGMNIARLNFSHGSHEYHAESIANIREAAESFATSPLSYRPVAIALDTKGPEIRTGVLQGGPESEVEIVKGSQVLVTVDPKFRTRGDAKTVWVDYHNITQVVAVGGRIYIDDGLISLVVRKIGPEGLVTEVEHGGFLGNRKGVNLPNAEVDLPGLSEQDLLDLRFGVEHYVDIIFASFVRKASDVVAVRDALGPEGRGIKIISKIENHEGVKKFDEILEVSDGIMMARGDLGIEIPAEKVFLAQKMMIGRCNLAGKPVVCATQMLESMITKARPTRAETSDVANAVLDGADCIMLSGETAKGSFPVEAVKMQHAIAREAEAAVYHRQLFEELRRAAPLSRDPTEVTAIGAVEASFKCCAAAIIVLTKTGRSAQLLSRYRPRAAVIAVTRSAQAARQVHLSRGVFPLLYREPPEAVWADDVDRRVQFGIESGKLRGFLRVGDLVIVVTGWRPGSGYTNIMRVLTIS
structure (smiles),measurement,setting,value
"O=C([C@H](CO)c1ccccc1)N1CC2=C(C1)CN(S(=O)(=O)c1cnc3c(c1)OCCO3)C2 (single isomer, unassigned) [Compound 1]",exposure under fed/fasted conditions,"[1]; food effect cohort, 200 mg",similar
same,observed clearance on day 1 and day 14,"[1]; healthy subjects, 14 days of dosing",unchanged
same,time of pharmacokinetic maximum,"[1]; healthy volunteers, single dose 400 mg, FIG. 43",1 to 2 h
same,concentration at which steroid modulation potential (% over vehicle) was indicated,[2],200 µM
same,"Grade 1 headache, incidence",[3]; HS receiving 14 days of dosing,28%
same,"Grade 1 headache, incidence",[3]; HS receiving a single dose,4%
same,related TEAE of grade 2 or less: headache,[3]; MAD cohorts,4 n
same,related TEAE of grade 2 or less: palpitations,[3]; MAD cohorts,1 n
same,related TEAE of grade 2 or less: somnolence,[3]; MAD cohorts,1 n
same,"Any TEAE, n (%)","[3]; MAD, N = 36",15 (42) n (%)
same,"Any grade 3 or greater TEAE, n (%)","[3]; MAD, N = 36",0 n (%)
same,"Drug interruption, reduction, or discontinuation due to TEAE, n (%)","[3]; MAD, N = 36",0 n (%)
same,serious adverse events / AEs leading to withdrawal,[3]; SAD and MAD cohorts of healthy volunteers,No serious adverse events (SAEs) or AEs leading to withdrawal
same,related TEAE of grade 2 or less: headache,[3]; SAD cohorts,1 n
same,related TEAE of grade 2 or less: transient ventricular tachycardia,[3]; SAD cohorts,1 n
same,"Any TEAE, n (%)","[3]; SAD, N = 24",5 (21) n (%)
same,"Any grade 3 or greater TEAE, n (%)","[3]; SAD, N = 24",1 (4) n (%)
same,"Drug interruption, reduction, or discontinuation due to TEAE, n (%)","[3]; SAD, N = 24",0 n (%)
same,increase in ATP levels compared to pre-treatment,[4]; 550 mg/kg daily for 28 days (highest dose),90%
same,"decrease in 2,3-DPG from pretreatment levels","[4]; daily doses 100, 350 and 550 mg/kg for 28 days",≤ 40%
same,Max-Min (%),[5]; individual replicates 1-2,<50% and <100%
same,"Max-Min (%), mean",[5]; mean,<100%
